{"source": "ChEMBL document CHEMBL5291721", "about": "“A preclinical secondary pharmacology resource illuminates target-adverse drug reaction associations of marketed drugs” (Nat Commun, 2023); also: assay procedure not described here", "key": {"Acetylcholinesterase [1]": {"target": "T1, Acetylcholinesterase (Homo sapiens, UniProt P22303)", "T1 sequence (P22303 whole entry)": "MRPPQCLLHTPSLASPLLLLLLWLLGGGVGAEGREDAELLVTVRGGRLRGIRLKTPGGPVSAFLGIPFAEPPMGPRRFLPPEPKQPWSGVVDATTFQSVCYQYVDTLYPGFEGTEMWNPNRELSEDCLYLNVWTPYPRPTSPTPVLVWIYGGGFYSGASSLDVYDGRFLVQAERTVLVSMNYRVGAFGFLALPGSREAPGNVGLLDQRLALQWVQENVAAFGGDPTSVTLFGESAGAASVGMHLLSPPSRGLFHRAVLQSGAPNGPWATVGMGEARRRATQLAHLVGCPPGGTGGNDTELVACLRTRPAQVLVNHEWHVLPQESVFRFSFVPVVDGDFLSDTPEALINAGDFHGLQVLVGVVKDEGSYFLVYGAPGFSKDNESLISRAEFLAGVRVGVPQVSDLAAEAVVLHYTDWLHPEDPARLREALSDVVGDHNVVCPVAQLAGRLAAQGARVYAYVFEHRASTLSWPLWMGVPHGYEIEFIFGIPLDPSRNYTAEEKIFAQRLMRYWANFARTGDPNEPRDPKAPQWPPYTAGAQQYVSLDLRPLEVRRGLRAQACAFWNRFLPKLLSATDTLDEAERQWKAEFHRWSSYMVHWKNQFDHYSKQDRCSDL", "format": "functional"}, "[2]": {"target": "T2, Alpha-2C adrenergic receptor (Homo sapiens, UniProt P18825)", "T2 sequence (P18825 whole entry)": "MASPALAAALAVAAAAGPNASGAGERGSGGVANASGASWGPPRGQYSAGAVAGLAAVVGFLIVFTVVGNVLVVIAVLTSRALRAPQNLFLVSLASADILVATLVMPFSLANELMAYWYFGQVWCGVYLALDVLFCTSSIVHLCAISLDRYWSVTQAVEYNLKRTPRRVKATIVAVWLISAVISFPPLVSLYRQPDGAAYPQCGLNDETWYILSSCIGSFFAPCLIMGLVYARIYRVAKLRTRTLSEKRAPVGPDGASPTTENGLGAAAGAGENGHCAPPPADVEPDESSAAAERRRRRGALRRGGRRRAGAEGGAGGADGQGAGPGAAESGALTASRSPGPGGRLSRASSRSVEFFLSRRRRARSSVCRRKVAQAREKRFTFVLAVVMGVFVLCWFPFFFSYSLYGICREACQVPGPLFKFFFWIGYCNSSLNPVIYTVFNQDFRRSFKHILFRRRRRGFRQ", "format": "functional"}, "Bile salt export pump": {"target": "Bile salt export pump (Homo sapiens, UniProt O95342)", "sequence (O95342 whole entry)": "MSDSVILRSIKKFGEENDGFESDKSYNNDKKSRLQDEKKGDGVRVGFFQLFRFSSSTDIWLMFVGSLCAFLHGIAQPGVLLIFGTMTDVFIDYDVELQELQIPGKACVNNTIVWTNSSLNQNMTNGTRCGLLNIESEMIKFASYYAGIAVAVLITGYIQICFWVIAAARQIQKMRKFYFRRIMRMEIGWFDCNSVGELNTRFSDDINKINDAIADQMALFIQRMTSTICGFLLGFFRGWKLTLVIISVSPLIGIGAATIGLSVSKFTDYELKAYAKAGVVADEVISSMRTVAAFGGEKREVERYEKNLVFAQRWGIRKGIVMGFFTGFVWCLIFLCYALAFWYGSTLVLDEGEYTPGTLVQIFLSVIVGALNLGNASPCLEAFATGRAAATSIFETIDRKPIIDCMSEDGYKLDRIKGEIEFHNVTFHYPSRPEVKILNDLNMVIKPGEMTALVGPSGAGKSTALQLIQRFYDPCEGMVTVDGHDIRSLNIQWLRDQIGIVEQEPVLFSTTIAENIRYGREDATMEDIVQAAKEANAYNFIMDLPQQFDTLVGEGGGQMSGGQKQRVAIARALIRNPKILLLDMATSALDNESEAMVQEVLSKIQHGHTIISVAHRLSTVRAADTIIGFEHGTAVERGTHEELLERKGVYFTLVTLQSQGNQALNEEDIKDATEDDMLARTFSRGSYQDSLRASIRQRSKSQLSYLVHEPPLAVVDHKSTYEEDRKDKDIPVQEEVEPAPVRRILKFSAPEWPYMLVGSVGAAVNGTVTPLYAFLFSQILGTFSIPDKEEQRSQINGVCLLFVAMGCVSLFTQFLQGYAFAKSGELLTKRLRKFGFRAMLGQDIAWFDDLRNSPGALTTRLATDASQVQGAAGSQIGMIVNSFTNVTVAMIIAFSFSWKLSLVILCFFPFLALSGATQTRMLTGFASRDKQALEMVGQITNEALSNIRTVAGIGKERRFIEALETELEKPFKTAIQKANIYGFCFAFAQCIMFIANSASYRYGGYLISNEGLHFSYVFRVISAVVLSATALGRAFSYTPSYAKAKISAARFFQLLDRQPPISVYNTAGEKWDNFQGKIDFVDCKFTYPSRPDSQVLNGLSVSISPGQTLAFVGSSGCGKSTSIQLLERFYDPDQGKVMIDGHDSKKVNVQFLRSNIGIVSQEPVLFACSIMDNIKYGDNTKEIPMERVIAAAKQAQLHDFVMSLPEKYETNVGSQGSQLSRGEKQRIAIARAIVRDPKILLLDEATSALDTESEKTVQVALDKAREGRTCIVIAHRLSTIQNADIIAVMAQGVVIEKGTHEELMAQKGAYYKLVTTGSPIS", "format": "functional"}, "Acetylcholinesterase [3]": {"target": "T1, Acetylcholinesterase", "format": "functional", "remark": "listed apart in the source"}, "[4]": {"target": "5-hydroxytryptamine receptor 2A (Homo sapiens, UniProt P28223)", "sequence (P28223 whole entry)": "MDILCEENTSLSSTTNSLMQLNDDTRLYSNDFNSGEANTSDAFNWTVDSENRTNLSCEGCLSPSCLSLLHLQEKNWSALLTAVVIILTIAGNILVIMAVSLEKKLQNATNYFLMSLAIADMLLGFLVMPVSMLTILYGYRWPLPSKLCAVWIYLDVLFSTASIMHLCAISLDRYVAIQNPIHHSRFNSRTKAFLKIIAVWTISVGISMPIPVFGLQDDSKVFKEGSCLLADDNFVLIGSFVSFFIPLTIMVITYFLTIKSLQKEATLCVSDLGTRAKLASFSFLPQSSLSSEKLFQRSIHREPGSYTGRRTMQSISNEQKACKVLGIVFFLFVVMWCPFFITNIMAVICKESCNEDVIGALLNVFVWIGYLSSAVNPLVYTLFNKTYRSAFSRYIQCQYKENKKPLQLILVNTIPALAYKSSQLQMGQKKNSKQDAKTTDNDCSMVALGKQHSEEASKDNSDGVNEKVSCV", "format": "functional, cell-based"}, "[5]": {"target": "T3, Muscarinic acetylcholine receptor M5 (Homo sapiens, UniProt P08912)", "T3 sequence (P08912 whole entry)": "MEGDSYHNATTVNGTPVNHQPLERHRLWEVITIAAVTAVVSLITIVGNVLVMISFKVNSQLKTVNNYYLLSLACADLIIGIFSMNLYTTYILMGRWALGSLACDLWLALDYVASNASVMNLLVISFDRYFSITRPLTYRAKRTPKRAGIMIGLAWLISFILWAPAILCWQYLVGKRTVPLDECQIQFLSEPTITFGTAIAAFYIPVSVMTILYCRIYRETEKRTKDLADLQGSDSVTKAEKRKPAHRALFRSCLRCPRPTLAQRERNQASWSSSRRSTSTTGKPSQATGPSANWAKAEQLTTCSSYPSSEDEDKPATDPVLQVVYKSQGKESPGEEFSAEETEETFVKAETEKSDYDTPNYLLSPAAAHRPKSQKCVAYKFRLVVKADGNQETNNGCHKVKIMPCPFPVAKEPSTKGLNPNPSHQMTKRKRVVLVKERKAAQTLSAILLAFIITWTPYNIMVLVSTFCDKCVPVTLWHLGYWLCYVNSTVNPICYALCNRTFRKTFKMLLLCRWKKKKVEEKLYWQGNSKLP"}, "[6]": {"target": "T4, Muscarinic acetylcholine receptor M4 (Homo sapiens, UniProt P08173)", "T4 sequence (P08173 whole entry)": "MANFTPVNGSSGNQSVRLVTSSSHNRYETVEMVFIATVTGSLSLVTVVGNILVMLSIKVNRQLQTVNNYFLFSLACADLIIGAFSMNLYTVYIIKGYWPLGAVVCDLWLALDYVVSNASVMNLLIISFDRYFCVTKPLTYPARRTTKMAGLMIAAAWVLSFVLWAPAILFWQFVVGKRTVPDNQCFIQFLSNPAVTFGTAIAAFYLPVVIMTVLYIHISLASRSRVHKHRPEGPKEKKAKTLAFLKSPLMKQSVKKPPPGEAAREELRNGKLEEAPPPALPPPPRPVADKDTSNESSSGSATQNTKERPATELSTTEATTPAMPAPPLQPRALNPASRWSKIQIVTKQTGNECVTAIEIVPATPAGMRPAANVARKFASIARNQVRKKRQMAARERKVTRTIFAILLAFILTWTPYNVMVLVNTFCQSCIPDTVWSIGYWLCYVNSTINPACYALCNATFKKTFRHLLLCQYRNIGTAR"}, "[7]": {"target": "Voltage-gated inwardly rectifying potassium channel KCNH2 (Homo sapiens, UniProt Q12809)", "format": "functional", "settings": "read-out: AC50"}, "D(3) dopamine receptor": {"target": "D(3) dopamine receptor (Homo sapiens, UniProt P35462)", "sequence (P35462 whole entry)": "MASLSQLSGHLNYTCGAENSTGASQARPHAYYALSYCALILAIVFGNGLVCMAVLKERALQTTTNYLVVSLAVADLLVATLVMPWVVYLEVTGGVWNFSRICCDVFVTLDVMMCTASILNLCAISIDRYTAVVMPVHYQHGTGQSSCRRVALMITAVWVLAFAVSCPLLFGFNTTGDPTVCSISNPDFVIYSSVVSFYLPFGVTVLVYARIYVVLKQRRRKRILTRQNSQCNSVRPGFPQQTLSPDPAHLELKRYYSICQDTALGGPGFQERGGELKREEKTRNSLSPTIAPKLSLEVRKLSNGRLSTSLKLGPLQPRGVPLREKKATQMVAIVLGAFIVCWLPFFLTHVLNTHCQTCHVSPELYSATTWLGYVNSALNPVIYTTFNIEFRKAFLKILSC"}, "[8]": {"target": "Sodium-dependent noradrenaline transporter (Homo sapiens, UniProt P23975)"}, "[9]": {"target": "T5, 5-hydroxytryptamine receptor 2B (Homo sapiens, UniProt P41595)", "T5 sequence (P41595 whole entry)": "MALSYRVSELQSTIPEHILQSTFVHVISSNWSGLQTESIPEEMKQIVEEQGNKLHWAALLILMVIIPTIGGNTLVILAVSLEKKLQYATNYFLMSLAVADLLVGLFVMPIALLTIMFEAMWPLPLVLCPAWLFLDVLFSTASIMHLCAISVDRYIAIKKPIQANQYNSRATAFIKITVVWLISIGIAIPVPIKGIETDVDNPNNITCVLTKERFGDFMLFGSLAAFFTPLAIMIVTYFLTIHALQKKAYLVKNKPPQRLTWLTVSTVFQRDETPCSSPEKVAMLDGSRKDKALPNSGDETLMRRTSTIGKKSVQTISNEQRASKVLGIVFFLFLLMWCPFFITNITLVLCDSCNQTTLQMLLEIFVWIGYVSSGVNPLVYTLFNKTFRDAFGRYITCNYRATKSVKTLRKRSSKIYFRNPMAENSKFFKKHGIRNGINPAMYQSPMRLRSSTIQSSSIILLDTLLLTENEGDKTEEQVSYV", "format": "functional, cell-based"}, "[10]": {"target": "T6, Gamma-aminobutyric acid receptor subunit alpha-1 (Rattus norvegicus, UniProt P62813)", "T6 sequence (P62813 whole entry)": "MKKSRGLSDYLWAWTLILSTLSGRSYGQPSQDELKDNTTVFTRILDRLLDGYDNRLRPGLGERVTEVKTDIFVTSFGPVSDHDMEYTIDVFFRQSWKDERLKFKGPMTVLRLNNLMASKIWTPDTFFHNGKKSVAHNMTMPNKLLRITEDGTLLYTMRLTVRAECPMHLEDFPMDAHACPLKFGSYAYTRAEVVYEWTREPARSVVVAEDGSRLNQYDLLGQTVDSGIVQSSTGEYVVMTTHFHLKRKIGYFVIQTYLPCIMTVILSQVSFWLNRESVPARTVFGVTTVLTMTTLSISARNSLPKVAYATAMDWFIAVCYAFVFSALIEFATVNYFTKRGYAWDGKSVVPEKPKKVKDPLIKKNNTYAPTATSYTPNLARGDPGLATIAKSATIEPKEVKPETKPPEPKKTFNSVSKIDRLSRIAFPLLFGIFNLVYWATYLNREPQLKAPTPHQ", "format": "functional"}, "[11]": {"target": "Kappa-type opioid receptor (Homo sapiens, UniProt P41145)", "sequence (P41145 whole entry)": "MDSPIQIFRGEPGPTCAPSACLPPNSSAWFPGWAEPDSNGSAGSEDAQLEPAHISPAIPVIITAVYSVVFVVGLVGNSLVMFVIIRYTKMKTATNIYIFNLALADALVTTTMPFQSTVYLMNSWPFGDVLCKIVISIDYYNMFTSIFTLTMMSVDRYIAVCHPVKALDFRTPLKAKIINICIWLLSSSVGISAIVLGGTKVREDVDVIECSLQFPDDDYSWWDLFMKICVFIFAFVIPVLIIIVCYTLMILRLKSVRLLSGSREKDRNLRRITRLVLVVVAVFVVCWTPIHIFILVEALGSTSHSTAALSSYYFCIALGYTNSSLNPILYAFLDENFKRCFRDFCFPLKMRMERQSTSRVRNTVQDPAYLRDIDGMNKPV"}, "Cannabinoid receptor 1": {"target": "Cannabinoid receptor 1 (Homo sapiens, UniProt P21554)"}, "[12]": {"target": "T6, Gamma-aminobutyric acid receptor subunit alpha-1"}, "D(1A) dopamine receptor": {"target": "D(1A) dopamine receptor (Homo sapiens, UniProt P21728)", "sequence (P21728 whole entry)": "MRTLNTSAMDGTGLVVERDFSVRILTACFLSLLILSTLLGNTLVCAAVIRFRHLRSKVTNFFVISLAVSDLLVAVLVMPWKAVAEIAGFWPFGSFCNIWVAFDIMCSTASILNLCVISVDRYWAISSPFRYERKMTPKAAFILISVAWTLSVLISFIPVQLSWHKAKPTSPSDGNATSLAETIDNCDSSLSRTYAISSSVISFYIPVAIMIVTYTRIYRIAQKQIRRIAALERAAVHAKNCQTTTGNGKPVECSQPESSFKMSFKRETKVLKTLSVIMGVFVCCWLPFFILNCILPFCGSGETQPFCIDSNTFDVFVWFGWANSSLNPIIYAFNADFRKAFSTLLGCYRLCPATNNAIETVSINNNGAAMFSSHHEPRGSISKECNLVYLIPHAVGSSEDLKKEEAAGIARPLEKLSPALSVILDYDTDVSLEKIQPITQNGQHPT", "format": "functional, cell-based"}, "[13]": {"target": "Neuronal acetylcholine receptor subunit alpha-4 (Homo sapiens, UniProt P43681)"}, "Mu-type opioid receptor [14]": {"target": "T7, Mu-type opioid receptor (Homo sapiens, UniProt P35372)", "T7 sequence (P35372 whole entry)": "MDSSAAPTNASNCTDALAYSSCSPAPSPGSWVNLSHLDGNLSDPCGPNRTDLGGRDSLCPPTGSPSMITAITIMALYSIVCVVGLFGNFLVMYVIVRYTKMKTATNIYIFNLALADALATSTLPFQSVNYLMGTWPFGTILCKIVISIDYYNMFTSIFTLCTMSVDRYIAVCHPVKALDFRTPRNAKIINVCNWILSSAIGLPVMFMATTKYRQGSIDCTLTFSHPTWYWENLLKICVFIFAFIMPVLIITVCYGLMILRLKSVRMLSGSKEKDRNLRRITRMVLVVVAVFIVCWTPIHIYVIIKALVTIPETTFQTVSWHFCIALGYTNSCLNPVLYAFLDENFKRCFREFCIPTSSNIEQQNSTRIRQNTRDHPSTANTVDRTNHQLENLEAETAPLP", "test": "biochemical", "format": "functional"}, "[15]": {"target": "Glutamate receptor ionotropic, NMDA 1 (Rattus norvegicus, UniProt P35439)"}, "[16]": {"target": "T5, 5-hydroxytryptamine receptor 2B", "format": "functional, cell-based", "remark": "listed apart in the source"}, "Mu-type opioid receptor [17]": {"target": "T7, Mu-type opioid receptor"}}}
{"smiles": "CN1CCN2c3ccccc3Cc3ccccc3C2C1", "note": "(configuration not stated) [MIANSERIN]", "values": [{"measurement": "AC50", "setting": "Acetylcholinesterase [1]", "result": "> 30", "unit": "µM"}, {"measurement": "AC50", "setting": "[2]", "result": 0.05, "unit": "µM"}]}
{"smiles": "Nc1cccc2c1CN(C1CCC(=O)NC1=O)C2=O", "note": "(configuration not stated) [LENALIDOMIDE]", "values": [{"measurement": "AC50", "setting": "Bile salt export pump", "result": "> 300", "unit": "µM"}]}
{"smiles": "NCCCC[C@H](N[C@@H](CCc1ccccc1)C(=O)O)C(=O)N1CCC[C@H]1C(=O)O", "note": "[LISINOPRIL ANHYDROUS]", "values": [{"measurement": "AC50", "setting": "Acetylcholinesterase [1]", "result": "> 30", "unit": "µM"}]}
{"smiles": "CCN(c1cc(-c2ccc(CN3CCOCC3)cc2)cc(C(=O)NCc2c(C)cc(C)[nH]c2=O)c1C)C1CCOCC1", "note": "[TAZEMETOSTAT]", "values": [{"measurement": "AC50", "setting": "Acetylcholinesterase [3]", "result": "> 30", "unit": "µM"}, {"measurement": "AC50", "setting": "[4]", "result": "> 30", "unit": "µM"}]}
{"smiles": "C[N+]1(C)[C@@H]2C[C@@H](OC(=O)C(O)(c3cccs3)c3cccs3)C[C@H]1[C@@H]1O[C@@H]12", "note": "[TIOTROPIUM BROMIDE]", "values": [{"measurement": "AC50", "setting": "[5]", "result": 0.0015, "unit": "µM"}, {"measurement": "AC50", "setting": "[6]", "result": 0.0003, "unit": "µM"}]}
{"smiles": "C[N+]1(C)[C@@H]2CC[C@H]1C[C@@H](OC(=O)C(O)c1ccccc1)C2", "note": "(some centres not stated) [METHYLHOMATROPINE]", "values": [{"measurement": "AC50", "setting": "[7]", "result": "> 30", "unit": "µM"}]}
{"smiles": "CCN(CC)C(=S)SSC(=S)N(CC)CC", "values": [{"measurement": "AC50", "setting": "Acetylcholinesterase [1]", "result": 14.2, "unit": "µM"}]}
{"smiles": "CC(=O)[C@H]1CC[C@H]2[C@@H]3CCC4=CC(=O)CC[C@]4(C)[C@H]3CC[C@]12C", "note": "[PROGESTERONE]", "values": [{"measurement": "AC50", "setting": "Acetylcholinesterase [1]", "result": "> 30", "unit": "µM"}]}
{"smiles": "NC(=O)OC[C@@H]1[C@H](NC(=O)/C(=N\\OCC(=O)O)c2csc(N)n2)C(=O)N1S(=O)(=O)O", "note": "[CARUMONAM]", "values": [{"measurement": "AC50", "setting": "Acetylcholinesterase [3]", "result": "> 500", "unit": "µM"}]}
{"smiles": "CC/C(=C(/CC)c1ccc(O)cc1)c1ccc(O)cc1", "note": "[DIETHYLSTILBESTROL]", "values": [{"measurement": "AC50", "setting": "Acetylcholinesterase [1]", "result": "> 30", "unit": "µM"}]}
{"smiles": "CCCC(=O)Nc1ncnc2c1ncn2[C@@H]1O[C@@H]2COP(=O)(O)O[C@H]2[C@H]1OC(=O)CCC", "note": "[BUCLADESINE]", "values": [{"measurement": "AC50", "setting": "Acetylcholinesterase [1]", "result": "> 30", "unit": "µM"}]}
{"smiles": "O=C1CC2(CCCC2)CC(=O)N1CCCCN1CCN(c2ncccn2)CC1", "note": "[BUSPIRONE]", "values": [{"measurement": "AC50", "setting": "D(3) dopamine receptor", "result": 0.048, "unit": "µM"}, {"measurement": "AC50", "setting": "[8]", "result": "> 30", "unit": "µM"}, {"measurement": "AC50", "setting": "[9]", "result": 7.37, "unit": "µM"}, {"measurement": "AC50", "setting": "[10]", "result": "> 10", "unit": "µM"}, {"measurement": "AC50", "setting": "[11]", "result": "> 10", "unit": "µM"}, {"measurement": "AC50", "setting": "Cannabinoid receptor 1", "result": 17.5, "unit": "µM"}, {"measurement": "AC50", "setting": "[12]", "result": "> 10", "unit": "µM"}, {"measurement": "AC50", "setting": "D(1A) dopamine receptor", "result": "> 10", "unit": "µM"}, {"measurement": "AC50", "setting": "[13]", "result": "> 10", "unit": "µM"}, {"measurement": "AC50", "setting": "Mu-type opioid receptor [14]", "result": "> 30", "unit": "µM"}, {"measurement": "AC50", "setting": "[15]", "result": "> 10", "unit": "µM"}, {"measurement": "AC50", "setting": "[16]", "result": "> 10", "unit": "µM"}, {"measurement": "AC50", "setting": "Mu-type opioid receptor [17]", "result": "> 30", "unit": "µM"}]}
